In PMC6422671 (British Journal of Clinical Pharmacology, 2019):

Assay: Clinical laboratory findings: haematology; data mean (standard deviation)
Format: in vivo, healthy men
Excerpt: Data are mean (standard deviation).

## C[C@@H](N)c1cc(Cl)ccc1Cn1c(=S)[nH]c(=O)c2[nH]ccc21 [AZD4831]
5 mg fasted, 24 h
  Basophils: 0.03 (0.01) 10^9 L^–1
  Eosinophils: 0.25 (0.12) 10^9 L^–1
  Erythrocyte MCH: 29.8 (1.2) pg
  Erythrocyte MCH concentration: 340 (5) g L^–1
  Erythrocyte MCV: 87.5 (3.3) fL
  Erythrocytes: 4.90 (0.28) 10^12 L^–1
  Haematocrit: 0.43 (0.02) ratio
  Haemoglobin: 146 (6) g L^–1
  Leukocytes: 5.43 (0.71) 10^9 L^–1
  Lymphocytes: 1.62 (0.37) 10^9 L^–1
  Monocytes: 0.37 (0.06) 10^9 L^–1
  Neutrophils: 3.07 (0.47) 10^9 L^–1
  Platelets: 246 (44) 10^9 L^–1
  Reticulocytes: 76.9 (15.3) 10^9 L^–1
5 mg fasted, 48 h
  Basophils: 0.04 (0.02) 10^9 L^–1
  Eosinophils: 0.23 (0.10) 10^9 L^–1
  Erythrocyte MCH: 29.6 (1.0) pg
  Erythrocyte MCH concentration: 338 (6) g L^–1
  Erythrocyte MCV: 87.7 (3.1) fL
  Erythrocytes: 4.88 (0.26) 10^12 L^–1
  Haematocrit: 0.43 (0.02) ratio
  Haemoglobin: 145 (7) g L^–1
  Leukocytes: 5.74 (1.20) 10^9 L^–1
  Lymphocytes: 1.60 (0.38) 10^9 L^–1
  Monocytes: 0.38 (0.06) 10^9 L^–1
  Neutrophils: 3.38 (1.02) 10^9 L^–1
  Platelets: 240 (50) 10^9 L^–1
  Reticulocytes: 84.4 (20.3) 10^9 L^–1
5 mg fasted, follow up
  Basophils: 0.04 (0.01) 10^9 L^–1
  Eosinophils: 0.26 (0.12) 10^9 L^–1
  Erythrocyte MCH: 29.5 (1.1) pg
  Erythrocyte MCH concentration: 334 (5) g L^–1
  Erythrocyte MCV: 88.2 (3.1) fL
  Erythrocytes: 4.98 (0.36) 10^12 L^–1
  Haematocrit: 0.44 (0.02) ratio
  Haemoglobin: 147 (8) g L^–1
  Leukocytes: 5.94 (1.03) 10^9 L^–1
  Lymphocytes: 1.47 (0.34) 10^9 L^–1
  Monocytes: 0.45 (0.15) 10^9 L^–1
  Neutrophils: 3.59 (0.73) 10^9 L^–1
  Platelets: 249 (38) 10^9 L^–1
  Reticulocytes: 91.6 (15.7) 10^9 L^–1
15 mg fasted, 24 h
  Basophils: 0.04 (0.01) 10^9 L^–1
  Eosinophils: 0.21 (0.07) 10^9 L^–1
  Erythrocyte MCH: 29.6 (0.7) pg
  Erythrocyte MCH concentration: 341 (2) g L^–1
  Erythrocyte MCV: 86.8 (2.0) fL
  Erythrocytes: 5.08 (0.27) 10^12 L^–1
  Haematocrit: 0.44 (0.03) ratio
  Haemoglobin: 150 (9) g L^–1
  Leukocytes: 5.94 (1.90) 10^9 L^–1
  Lymphocytes: 1.75 (0.55) 10^9 L^–1
  Monocytes: 0.46 (0.17) 10^9 L^–1
  Neutrophils: 3.37 (1.36) 10^9 L^–1
  Platelets: 193 (28) 10^9 L^–1
  Reticulocytes: 77.2 (18.6) 10^9 L^–1
15 mg fasted, 48 h
  Basophils: 0.04 (0.01) 10^9 L^–1
  Eosinophils: 0.22 (0.07) 10^9 L^–1
  Erythrocyte MCH: 29.5 (1.1) pg
  Erythrocyte MCH concentration: 340 (7) g L^–1
  Erythrocyte MCV: 86.9 (2.9) fL
  Erythrocytes: 5.03 (0.23) 10^12 L^–1
  Haematocrit: 0.44 (0.02) ratio
  Haemoglobin: 148 (8) g L^–1
  Leukocytes: 6.08 (1.88) 10^9 L^–1
  Lymphocytes: 1.71 (0.49) 10^9 L^–1
  Monocytes: 0.52 (0.21) 10^9 L^–1
  Neutrophils: 3.47 (1.39) 10^9 L^–1
  Platelets: 204 (25) 10^9 L^–1
  Reticulocytes: 78.1 (24.5) 10^9 L^–1
15 mg fasted, follow up
  Basophils: 0.04 (0.02) 10^9 L^–1
  Eosinophils: 0.22 (0.08) 10^9 L^–1
  Erythrocyte MCH: 29.1 (1.0) pg
  Erythrocyte MCH concentration: 334 (2) g L^–1
  Erythrocyte MCV: 87.3 (2.5) fL
  Erythrocytes: 5.06 (0.37) 10^12 L^–1
  Haematocrit: 0.44 (0.03) ratio
  Haemoglobin: 147 (10) g L^–1
  Leukocytes: 5.81 (1.43) 10^9 L^–1
  Lymphocytes: 1.63 (0.38) 10^9 L^–1
  Monocytes: 0.49 (0.07) 10^9 L^–1
  Neutrophils: 3.32 (1.20) 10^9 L^–1
  Platelets: 221 (33) 10^9 L^–1
  Reticulocytes: 89.9 (32.9) 10^9 L^–1
45 mg fasted, 24 h
  Basophils: 0.04 (0.02) 10^9 L^–1
  Eosinophils: 0.20 (0.12) 10^9 L^–1
  Erythrocyte MCH: 28.4 (2.1) pg
  Erythrocyte MCH concentration: 335 (8) g L^–1
  Erythrocyte MCV: 84.8 (5.8) fL
  Erythrocytes: 5.01 (0.18) 10^12 L^–1
  Haematocrit: 0.42 (0.03) ratio
  Haemoglobin: 142 (9) g L^–1
  Leukocytes: 5.28 (1.15) 10^9 L^–1
  Lymphocytes: 1.74 (0.42) 10^9 L^–1
  Monocytes: 0.37 (0.13) 10^9 L^–1
  Neutrophils: 2.83 (0.90) 10^9 L^–1
  Platelets: 220 (39) 10^9 L^–1
  Reticulocytes: 69.8 (16.4) 10^9 L^–1
45 mg fasted, 48 h
  Basophils: 0.04 (0.02) 10^9 L^–1
  Eosinophils: 0.21 (0.10) 10^9 L^–1
  Erythrocyte MCH: 28.4 (2.3) pg
  Erythrocyte MCH concentration: 335 (15) g L^–1
  Erythrocyte MCV: 84.9 (5.9) fL
  Erythrocytes: 5.02 (0.33) 10^12 L^–1
  Haematocrit: 0.43 (0.03) ratio
  Haemoglobin: 142 (8) g L^–1
  Leukocytes: 5.69 (1.06) 10^9 L^–1
  Lymphocytes: 1.79 (0.36) 10^9 L^–1
  Monocytes: 0.38 (0.10) 10^9 L^–1
  Neutrophils: 3.16 (0.95) 10^9 L^–1
  Platelets: 222 (44) 10^9 L^–1
  Reticulocytes: 77.3 (19.5) 10^9 L^–1
45 mg fasted, follow up
  Basophils: 0.05 (0.02) 10^9 L^–1
  Eosinophils: 0.20 (0.15) 10^9 L^–1
  Erythrocyte MCH: 28.3 (2.3) pg
  Erythrocyte MCH concentration: 333 (10) g L^–1
  Erythrocyte MCV: 85.0 (5.8) fL
  Erythrocytes: 5.08 (0.35) 10^12 L^–1
  Haematocrit: 0.43 (0.02) ratio
  Haemoglobin: 143 (7) g L^–1
  Leukocytes: 5.88 (1.09) 10^9 L^–1
  Lymphocytes: 1.61 (0.45) 10^9 L^–1
  Monocytes: 0.45 (0.13) 10^9 L^–1
  Neutrophils: 3.45 (1.25) 10^9 L^–1
  Platelets: 245 (38) 10^9 L^–1
  Reticulocytes: 79.1 (19.3) 10^9 L^–1
